Test results published in patent US20190079075A1, “PHARMECEUTICAL COMPOSITION FOR LUNG CANCER TREATMENT AND METHODS FOR PROVIDING INFORMATION AND SCREENING” (DONG-A UNIVERSITY RESEARCH FOUNDATION FOR INDUSTRY-ACADEMY …, priority 2015, published 2019).

Assays:
SIRT1 [1] = biological target: T1, SIRT1 (Homo sapiens, UniProt Q96EB6); test: XPA acetylation by immunoprecipitation of XPA and immunoblotting with anti-acetyl-lysine antibody; type: cell-based; conditions: UV-PreC cells pretreated with EX527 for 5 h before cisplatin treatment; FIG. 8B
T1 sequence (Q96EB6 1-747): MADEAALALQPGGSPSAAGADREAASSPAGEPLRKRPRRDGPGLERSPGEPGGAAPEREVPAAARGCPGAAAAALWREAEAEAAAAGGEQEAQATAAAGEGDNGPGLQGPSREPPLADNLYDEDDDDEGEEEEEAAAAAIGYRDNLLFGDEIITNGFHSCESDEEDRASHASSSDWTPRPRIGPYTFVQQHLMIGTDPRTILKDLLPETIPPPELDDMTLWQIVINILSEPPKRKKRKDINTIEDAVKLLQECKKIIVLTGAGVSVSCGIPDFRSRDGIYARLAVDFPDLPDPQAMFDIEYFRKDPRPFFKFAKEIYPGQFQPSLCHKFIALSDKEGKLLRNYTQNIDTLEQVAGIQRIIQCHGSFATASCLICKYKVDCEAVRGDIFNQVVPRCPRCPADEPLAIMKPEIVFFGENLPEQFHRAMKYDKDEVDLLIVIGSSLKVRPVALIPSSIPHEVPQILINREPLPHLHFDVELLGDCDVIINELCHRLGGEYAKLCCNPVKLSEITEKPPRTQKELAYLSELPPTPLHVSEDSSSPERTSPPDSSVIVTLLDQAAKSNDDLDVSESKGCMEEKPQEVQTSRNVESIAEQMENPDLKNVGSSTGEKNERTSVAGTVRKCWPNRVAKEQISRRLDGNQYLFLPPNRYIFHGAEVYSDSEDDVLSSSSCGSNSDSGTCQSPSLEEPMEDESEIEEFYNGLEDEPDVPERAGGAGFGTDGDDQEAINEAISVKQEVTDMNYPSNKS

lung cancer cells [2] = test: Local UV irradiation and immunofluorescence (6-4PP repair kinetics, XPA foci); type: cell-based, human; conditions: for XPA foci-positive cells, Pt-PreC vs nonPreC: FIG. 7B
Experimental: Results are presented as mean±SD from three independent experiments. Differences were considered significant at the value of P<0.01 (**). FIGS. 8A to 8D show the upregulation of SIRT1 expression during PreC. […] GAPDH was used as a loading control. […] Histone H3 was used to indicate chromatin-enriched fraction. […] 60 minutes after local UV irradiation the 6-4PP foci-positive cells were counted from randomly selected 1000 cells in each sample. The bars and error bars represent the mean±s.d from three independent experiments. Differences were considered significant at the value of P<0.001 (***). […] After incubation for the recovery times the cells were fixed in 4% paraformaldehyde for 15 min, followed by conventional immunofluorescence staining procedures. UV-induced lesions were counter-labeled with anti-6-4PP antibody, and XPA foci-positive cells were counted for quantitative analysis. The images were captured using Nikon imaging software NIS-Elements 4.0.

SIRT1 [3] = biological target: T1, SIRT1; test: XPA loading to chromatin (chromatin-enriched fraction, immunoblotting); conditions: EX527 pretreatment before cisplatin following UV-PreC; FIG. 8B
lung cancer cells [4] = test: Immunoslot blotting of residual UV-induced CPDs after cisplatin preconditioning; type: cell-based, human; conditions: preconditioning with 5 μM cisplatin; 5 or 10 J/m^2 UV; FIGS. 3B and 3C
Experimental: FIGS. 3A to 3C show the enhanced UV-induced CPD repair activity following Pt-PreC. […] After immunoslot blotting the membrane was counterstained with SYBR-Gold for a loading control of genomic DNA. 5 J/m^2 (FIG. 3B) or 10 J/m^2 (FIG. 3C) of UV-induced CPD repair kinetics were measured from cells conditioned with nonPreC or Pt-PreC.
(§1) A549 and H460 cells (American Type Culture Collection, Manassas, Va., USA) were cultured in Dulbecco's modified Eagle medium supplemented with 10% fetal bovine serum and 1% penicillin-streptomycin. 100% confluent cells were kept for additional four days to completely block cell proliferation and then exposed to the UV light using a germicidal lamp (for immunoslot blotting) or UV crosslinker (for immunofluorescence) emitting primarily UV-C light. A UV-C sensor (UV Products, Upland, Calif., USA) was used to calibrate the fluence rate of the incident light. For immunofluorescence staining, cells were grown on a glass coverslip coated with poly-D-lysine and laminin (BD Biosciences, San Jose, Calif., USA). For assessment of cell viability, CellTiter-Fluor Cell Viability Assay kit (Promega, Madison, Wis., USA) was used as indicated in manufacturer's protocol. Fluorescence plate reader (BIORAD, Hercules, Calif., USA) was used to measure a constitutive protease activity within live cells using a fluorogenic and cell permeable peptide substrate. […]

lung cancer cells [5] = test: Immunoslot blotting of Pt-GpG adduct removal after cisplatin preconditioning; type: cell-based, human
Experimental: as §1, with “FIGS. 4A and 4B show the enhanced Pt-GpG diadduct removal by Pt-PreC. […] The bars and error bars represent the mean±s.d from three independent experiments. A549” for “A549”

[6] = system: 6-4PP-containing DNA substrate; test: Dual-incision NER activity assay with lysate of Pt-PreC cells; type: cell-based, human; conditions: FIG. 5
Experimental: Dual-incision NER activity assay was performed using isotope-labeled and 6-4PP-containing linear substrate DNA and cell lysates obtained from nonPreC and Pt-PreC cells at the indicated times after PreC. Amount of excision product was used as a measure of the NER capacity of the lysate. Results are presented as mean±SD from three independent experiments. Differences were considered significant at the values of P<0.01 (**) and P<0.001 (***). Assay of NER activity in the cell lysate toward 6-4PP-containing DNA substrate was carried out. Briefly, 10 fmol of 140-bp duplex with a 6-4PP in the center and ^32P-label at the 5th phosphodiester bond 5′ to the site of the lesion was incubated with 70 μg of lysate in 25 μL of excision buffer at 30° C. for 1 h. The amount of excision product was used as a measure of NER capacity in the lysate. The 6-4PP-containing linear duplex substrate DNA and NER-competent cell lysate were prepared.

effect on the UV-PreC-induced decrease in acetylation level of XPA (SIRT1 [1])	effect on UV-PreC-induced enhancement of XPA chromatin loading (SIRT1 [3])	Structure (SMILES)	effect on PreC-induced repair capacity (6-4PP repair kinetics) (lung cancer cells [2]; 1 μM EX-527 for 5 h before local UV irradiation, 6-4PP foci-positive cells counted 60 min after UV, FIG. 8C)	6-4PP removal, Pt-PreC vs nonPreC control (lung cancer cells [2]; 200 J/m^2 local UV irradiation, FIG. 7A)	XPA foci-positive cells, Pt-PreC vs nonPreC (lung cancer cells [2]; 60 min after UV exposure)	XPA foci-positive cells, Pt-PreC vs nonPreC (lung cancer cells [2]; within 30 min of recovery time)	kinetics of CPD repair after the same dose of UV, preconditioned vs nonPreC (lung cancer cells [4])	remaining Pt-GpG adduct after Pt-PreC (lung cancer cells [5]; 48 h after Pt-PreC with 5 μM of cisplatin, FIG. 4A)	Pt-GpG repair kinetics upon following cisplatin treatment, Pt-PreC vs nonPreC (lung cancer cells [5]; Pt-PreC 5 μM, then 10 μM cisplatin, FIG. 4B)	time after PreC at which NER activity peaked [6]	time after PreC at which NER activity started to increase [6]	time after PreC at which enhancement of NER capacity was no longer detected [6]
immediately reversed	reduced in the presence of EX527	NC(=O)C1CCCc2c1[nH]c1ccc(Cl)cc21 (stereo not drawn) [EX527, 6-chloro-2,3,4,9-tetrahydro-1H-carbazole-1-carboxamide]	compromised by SIRT1 inhibition	–	–	–	–	–	–	–	–	–
–	–	N.N.[Cl][Pt][Cl] [cisplatin]	–	accelerated the 6-4PP removal	approximately 3 times less	no difference	much faster	no remaining Pt-GpG adduct	much faster	48 h	12 h	72 h
